This assay is described as follows: antiirritant effect against Balsam of Peru on ventral forearms of volunteers. It counts as in vivo, human. The settings on record: 0.1% in hydroalcohol 1:1, applied twenty minutes before Balsam of Peru; Minolta Chromameter; seven volunteers. As to the method:
Seven volunteers with a history of skin sensitivity to Balsam of Peru are chosen for the study.
The test compounds are applied to the ventral forearms of panelists. The material is allowed to absorb for twenty minutes and then Balsam of Peru, an irritant is applied on the test sites. Skin irritation is measured in terms of increase in skin redness. The degree of redness is measured with a Minolta Chromameter and compared with the controls, the positive control being skin treated with Balsam of Peru alone, and the negative control being a skin site treated with 10% cola solution(a known antiirritant), and challenged like the test products.

From patent publication US6387947B1, “Antimicrobial cosmetic compositions” (E-L Management Corp., priority 1997, dated 2002) come the findings set out here.

In the case of `COc1cc(/C=C/C(=O)O)ccc1O` [Ferulic acid, ferulic acid], the “effectiveness in preventing the onset of irritation (reduction of skin redness)” value is listed as 72%.
